Test: Circular dichroism (CD) spectroscopy of peptide helicity
Conditions: unlabeled peptide, 10 mM sodium phosphate pH 7.0, FIG. 11D
Method: Circular Dichroism (CD) Spectroscopy: CD spectra (FIGS. 11A-11D) were obtained using unlabeled peptides in 10 mM sodium phosphate pH 7.0 buffer. The raw data has been converted to the concentration-independent unit of molar ellipticity. α-Helices typically show dual minima at approximately 208 nm and 222 nm and a maximum at approximately 192 nm.

Structure (SMILES): CC(=O)N[C@H](C(=O)N[C@@H](CO)C(=O)N[C@@H](Cc1ccccc1)C(=O)N[C@]12CCN(C1)C(=O)OCCCCOC(=O)N1CC[C@@](C(N)=O)(C1)NC(=O)[C@H](CC(C)C)NC(=O)[C@H](CC(C)C)NC(=O)[C@H](C)NC(=O)[C@H](Cc1[nH]cc3ccccc13)NC(=O)[C@H](Cc1ccc(O)cc1)NC(=O)[C@H](CCC(=O)O)NC2=O)C(C)O (single isomer, unassigned) [Ac-PM2 PyrR/PyrS Alloc-Stapled]
- α-helical character (CD spectrum): a-helical

— patent US12258423B2, “Stapled and stitched polypeptides and uses thereof” (President and Fellows of Harvard College, priority 2013, dated 2025)
